Values joined by “and” are separate entries in the source; they are usually repeats but may differ in a detail not shown here. Equal entries are not always repeated. Inconclusive results and toxic doses are left out. No stated cut-off is given here; in the data, active means T/C of 150% or more; inactive means T/C below 125%.
Tested on: L1210 leukemia ip in BDF1 mice, survival T/C
Experiment: NCI In Vivo Anticancer Drug Screen. Data for tumor model L1210 Leukemia (intraperitoneal) in B6D2F1 (BDF1) mice
Details: endpoint: mean survival time, higher = longer survival
Summary of the method: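 Transplanted-tumor mice were given test agent; controls received vehicle only. Survival readings from the two groups were divided (treated over control).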

[1] = dose: 100.0 mg/kg/injection, schedule: Q04DX003 (ip), vehicle: Klucel (hydroxypropylcellulose) (HPC)
[2] = dose: 200.0 mg/kg/injection, schedule: Q04DX003 (ip), vehicle: Klucel (hydroxypropylcellulose) (HPC)
[3] = dose: 400.0 mg/kg/injection, schedule: Q04DX003 (ip), vehicle: Klucel (hydroxypropylcellulose) (HPC)
[4] = dose: 50.0 mg/kg/injection, schedule: Q04DX003 (ip), vehicle: Klucel (hydroxypropylcellulose) (HPC)
[5] = dose: 100.0 mg/kg/injection, schedule: Q04DX003 (ip), vehicle: saline with Tween-80
[6] = dose: 200.0 mg/kg/injection, schedule: Q04DX003 (ip), vehicle: saline with Tween-80
[7] = dose: 400.0 mg/kg/injection, schedule: Q04DX003 (ip), vehicle: saline with Tween-80

Measured: T/C

O=C(c1ccc([N+](=O)[O-])cc1)c1ccc(O)cc1O
inactive: dose: 100.0 mg/kg/injection, schedule: Q01DX001 (ip), vehicle: other 101 % of control | dose: 100.0 mg/kg/injection, schedule: Q04DX003 (ip), vehicle: other 100 % of control | dose: 200.0 mg/kg/injection, schedule: Q01DX001 (ip), vehicle: other 101 % of control | dose: 200.0 mg/kg/injection, schedule: Q04DX003 (ip), vehicle: other 101 % of control | dose: 400.0 mg/kg/injection, schedule: Q01DX001 (ip), vehicle: other 103 % of control | dose: 400.0 mg/kg/injection, schedule: Q04DX003 (ip), vehicle: other 97 % of control

C/C(CCC(=O)O)=N\NC(=O)Cc1cccc2ccccc12
inactive: [1] 94 % of control | [2] 102 % of control | [3] 102 % of control

Cc1cccc(C(Cc2ccc(N3C(N)=NC(N)=NC3(C)C)cc2)C(=O)Nc2ccc(S(=O)(=O)F)cc2)c1 (centres undefined)
inactive: dose: 100.0 mg/kg/injection, schedule: Q01DX001 (ip), vehicle: saline 108 % of control | dose: 200.0 mg/kg/injection, schedule: Q01DX001 (ip), vehicle: saline 110 % of control | dose: 400.0 mg/kg/injection, schedule: Q01DX001 (ip), vehicle: saline 98 % of control

CCc1ccc(N=Nc2c(F)c(F)c(N)c(F)c2F)cc1
inactive: dose: 100.0 mg/kg/injection, schedule: Q01DX001 (ip), vehicle: carboxymethylcellulose (CMC) 100 % of control | dose: 200.0 mg/kg/injection, schedule: Q01DX001 (ip), vehicle: carboxymethylcellulose (CMC) 95 % of control | dose: 400.0 mg/kg/injection, schedule: Q01DX001 (ip), vehicle: carboxymethylcellulose (CMC) 102 % of control

Nc1ccc2cc3ccccc3cc2c1
inactive: dose: 12.5 mg/kg/injection, schedule: Q01DX015 (ip), vehicle: saline 104 % of control | dose: 25.0 mg/kg/injection, schedule: Q01DX015 (ip), vehicle: saline 95 % of control | dose: 50.0 mg/kg/injection, schedule: Q01DX015 (ip), vehicle: saline 95 % of control | dose: 100.0 mg/kg/injection, schedule: Q01DX015 (ip), vehicle: saline 97 % of control

Cc1ccc(Nc2ccc([N+](=O)[O-])cc2[N+](=O)[O-])cc1C
inactive: [4] 102 % of control | dose: 100.0 mg/kg/injection, schedule: Q01DX009 (ip), vehicle: Klucel (hydroxypropylcellulose) (HPC) 108 % of control | [1] 102 % of control | dose: 200.0 mg/kg/injection, schedule: Q01DX009 (ip), vehicle: Klucel (hydroxypropylcellulose) (HPC) 90 % of control | [2] 98 % of control and 104 % of control | dose: 400.0 mg/kg/injection, schedule: Q01DX009 (ip), vehicle: Klucel (hydroxypropylcellulose) (HPC) 97 % of control | [3] 89 % of control

C[P+]1(c2ccccc2)CCC(N)=C(C#N)C1 (centres undefined)
inactive: dose: 100.0 mg/kg/injection, schedule: Q04DX002 (ip), vehicle: saline with Tween-80 100 % of control

C(C=C(c1ccccc1)c1ccccc1)=C(c1ccccc1)c1ccccc1
inactive: [5] 97 % of control | [6] 90 % of control | [7] 92 % of control

Cc1noc2c1ncc[n+]2[O-]
inactive: dose: 5.0 mg/kg/injection, schedule: Q01DX009 (ip), vehicle: saline with Tween-80 89 % of control | dose: 10.0 mg/kg/injection, schedule: Q01DX009 (ip), vehicle: saline with Tween-80 91 % of control | dose: 20.0 mg/kg/injection, schedule: Q01DX009 (ip), vehicle: saline with Tween-80 86 % of control

CCOC(=O)CP(=O)(OC)c1ccccc1 (centres undefined)
inactive: dose: 100.0 mg/kg/injection, schedule: Q01DX009 (ip), vehicle: saline 97 % of control | dose: 200.0 mg/kg/injection, schedule: Q01DX009 (ip), vehicle: saline 120 % of control | dose: 400.0 mg/kg/injection, schedule: Q01DX009 (ip), vehicle: saline 101 % of control

Cc1cc(C)c(-c2c(O)c(Br)c(-c3c(C)cc(C)c(Br)c3C)c(O)c2Br)c(C)c1Br
inactive: dose: 12.5 mg/kg/injection, schedule: Q01DX009 (ip), vehicle: Klucel (hydroxypropylcellulose) (HPC) 100 % of control | dose: 12.5 mg/kg/injection, schedule: Q04DX003 (ip), vehicle: Klucel (hydroxypropylcellulose) (HPC) 100 % of control | dose: 25.0 mg/kg/injection, schedule: Q01DX009 (ip), vehicle: Klucel (hydroxypropylcellulose) (HPC) 103 % of control | dose: 25.0 mg/kg/injection, schedule: Q04DX003 (ip), vehicle: Klucel (hydroxypropylcellulose) (HPC) 97 % of control | dose: 50.0 mg/kg/injection, schedule: Q01DX009 (ip), vehicle: Klucel (hydroxypropylcellulose) (HPC) 94 % of control | [4] 102 % of control | dose: 75.0 mg/kg/injection, schedule: Q01DX009 (ip), vehicle: Klucel (hydroxypropylcellulose) (HPC) 120 % of control

CC(=O)O[C@H]1CC[C@H]2[C@@H]3[C@H](C)CC4=CC(=O)CCC4[C@H]3CC[C@]12C (some centres undefined)
inactive: dose: 100.0 mg/kg/injection, schedule: Q01DX001 (sc), vehicle: steriod suspending solution 98 % of control | dose: 200.0 mg/kg/injection, schedule: Q01DX001 (sc), vehicle: steriod suspending solution 100 % of control | dose: 400.0 mg/kg/injection, schedule: Q01DX001 (sc), vehicle: steriod suspending solution 102 % of control

CCOC(=O)C(N)=S
inactive: dose: 100.0 mg/kg/injection, schedule: Q04DX003 (ip), vehicle: saline 98 % of control | dose: 200.0 mg/kg/injection, schedule: Q04DX003 (ip), vehicle: saline 96 % of control | dose: 400.0 mg/kg/injection, schedule: Q04DX003 (ip), vehicle: saline 88 % of control

CCOP(=O)(OCC)C(=Cc1ccccc1)P(=O)(OCC)OCC
inactive: dose: 100.0 mg/kg/injection, schedule: Q01DX001 (ip), vehicle: saline with Tween-80 106 % of control | dose: 100.0 mg/kg/injection, schedule: Q01DX009 (ip), vehicle: saline with Tween-80 107 % of control | dose: 200.0 mg/kg/injection, schedule: Q01DX001 (ip), vehicle: saline with Tween-80 103 % of control | dose: 200.0 mg/kg/injection, schedule: Q01DX009 (ip), vehicle: saline with Tween-80 105 % of control | dose: 400.0 mg/kg/injection, schedule: Q01DX001 (ip), vehicle: saline with Tween-80 103 % of control | dose: 400.0 mg/kg/injection, schedule: Q01DX009 (ip), vehicle: saline with Tween-80 107 % of control

CCCN=C(N)N=C(N)N
inactive: dose: 50.0 mg/kg/injection, schedule: Q01DX009 (ip), vehicle: water 108 % of control | dose: 100.0 mg/kg/injection, schedule: Q01DX001 (ip), vehicle: water 102 % of control | dose: 100.0 mg/kg/injection, schedule: Q01DX009 (ip), vehicle: water 95 % of control | dose: 100.0 mg/kg/injection, schedule: Q04DX003 (ip), vehicle: water 104 % of control | dose: 200.0 mg/kg/injection, schedule: Q01DX001 (ip), vehicle: water 102 % of control | dose: 200.0 mg/kg/injection, schedule: Q04DX003 (ip), vehicle: water 102 % of control | dose: 400.0 mg/kg/injection, schedule: Q01DX001 (ip), vehicle: water 102 % of control

CCCCCC/C=C/C(=O)OCC
inactive: [5] 96 % of control | [6] 101 % of control | [7] 101 % of control

CCCCCCCCCCCCCCCCCCNC(=O)Nc1ccccc1[N+](=O)[O-]
inactive: dose: 50.0 mg/kg/injection, schedule: Q01DX009 (ip), vehicle: DMSO 98 % of control | dose: 100.0 mg/kg/injection, schedule: Q01DX009 (ip), vehicle: DMSO 88 % of control | dose: 100.0 mg/kg/injection, schedule: Q04DX003 (ip), vehicle: DMSO 94 % of control | dose: 200.0 mg/kg/injection, schedule: Q04DX003 (ip), vehicle: DMSO 89 % of control

From PubChem BioAssay AID248 (DTP/NCI, 2004)
